Laboratory results: PubChem BioAssay (NCI)
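Five compound concentrations were applied to cells in 96-well plates for 48 hours; endpoints were derived by simple linear interpolation of the resulting dose-response curve. At the TGI there is no net growth.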

What was measured:
Test in all cases: growth of human tumour cells (NCI), 48 h
RXF 393 renal = test system: RXF 393 renal
MALME-3M melanoma = test system: MALME-3M melanoma
UACC-257 melanoma = test system: UACC-257 melanoma
A498 renal = test system: A498 renal
CAKI-1 renal = test system: CAKI-1 renal
MOLT-4 leukemia = test system: MOLT-4 leukemia
U251 CNS = test system: U251 CNS
CCRF-CEM leukemia = test system: CCRF-CEM leukemia
SF-539 CNS = test system: SF-539 CNS
SF-295 CNS = test system: SF-295 CNS
SK-MEL-5 melanoma = test system: SK-MEL-5 melanoma
SN12C renal = test system: SN12C renal
M14 melanoma = test system: M14 melanoma
SW-620 colon = test system: SW-620 colon
MDA-MB-231 breast = test system: MDA-MB-231 breast
SF-268 CNS = test system: SF-268 CNS
HS 578T breast = test system: HS 578T breast
NCI-H460 lung = test system: NCI-H460 lung
DU-145 prostate = test system: DU-145 prostate
RPMI-8226 leukemia = test system: RPMI-8226 leukemia
SNB-19 CNS = test system: SNB-19 CNS
NCI/ADR-RES ovarian = test system: NCI/ADR-RES ovarian
HCT-15 colon = test system: HCT-15 colon
LOX IMVI melanoma = test system: LOX IMVI melanoma
A549 NSCLC = test system: A549 NSCLC
HCT-116 colon = test system: HCT-116 colon
MDA-N = test system: MDA-N
COLO 205 colon = test system: COLO 205 colon
T-47D breast = test system: T-47D breast
SK-MEL-2 melanoma = test system: SK-MEL-2 melanoma
UACC-62 melanoma = test system: UACC-62 melanoma
MCF7 breast = test system: MCF7 breast
UO-31 renal = test system: UO-31 renal
OVCAR-4 ovarian = test system: OVCAR-4 ovarian
786-0 renal = test system: 786-0 renal
SNB-75 CNS = test system: SNB-75 CNS
SK-MEL-28 melanoma = test system: SK-MEL-28 melanoma
K-562 leukemia = test system: K-562 leukemia
PC-3 prostate = test system: PC-3 prostate
EKVX NSCLC = test system: EKVX NSCLC
NCI-H23 lung = test system: NCI-H23 lung
SR leukemia = test system: SR leukemia
ACHN renal = test system: ACHN renal
NCI-H226 lung = test system: NCI-H226 lung
OVCAR-5 ovarian = test system: OVCAR-5 ovarian
KM12 colon = test system: KM12 colon
HOP-62 NSCLC = test system: HOP-62 NSCLC
MDA-MB-435 = test system: MDA-MB-435
HT29 colon = test system: HT29 colon
OVCAR-3 ovarian = test system: OVCAR-3 ovarian
HOP-92 NSCLC = test system: HOP-92 NSCLC
TK-10 renal = test system: TK-10 renal
SK-OV-3 ovarian = test system: SK-OV-3 ovarian
HL-60(TB) leukemia = test system: HL-60(TB) leukemia
OVCAR-8 ovarian = test system: OVCAR-8 ovarian
HCC-2998 colon = test system: HCC-2998 colon
IGROV1 ovarian = test system: IGROV1 ovarian
NCI-H522 lung = test system: NCI-H522 lung

## COc1ccc(NC(=O)c2cc(NC(=O)/C=C/c3ccccc3)c(OC)c(OC)c2)cc1
RXF 393 renal
  TGI: > 100 µM
MALME-3M melanoma
  TGI: 99.6 µM
UACC-257 melanoma
  TGI: > 100 µM
A498 renal
  TGI: > 100 µM
CAKI-1 renal
  TGI: > 100 µM
MOLT-4 leukemia
  TGI: > 100 µM
U251 CNS
  TGI: > 100 µM
CCRF-CEM leukemia
  TGI: > 100 µM
SF-539 CNS
  TGI: > 100 µM
SF-295 CNS
  TGI: > 100 µM
SK-MEL-5 melanoma
  TGI: > 100 µM
SN12C renal
  TGI: > 100 µM
M14 melanoma
  TGI: > 100 µM
SW-620 colon
  TGI: > 100 µM
MDA-MB-231 breast
  TGI: > 100 µM
SF-268 CNS
  TGI: > 100 µM
HS 578T breast
  TGI: > 100 µM
NCI-H460 lung
  TGI: > 100 µM
DU-145 prostate
  TGI: > 100 µM
RPMI-8226 leukemia
  TGI: > 100 µM
SNB-19 CNS
  TGI: > 100 µM
NCI/ADR-RES ovarian
  TGI: > 100 µM
HCT-15 colon
  TGI: > 100 µM
LOX IMVI melanoma
  TGI: > 100 µM
A549 NSCLC
  TGI: > 100 µM
HCT-116 colon
  TGI: > 100 µM
MDA-N
  TGI: 16.5 µM
COLO 205 colon
  TGI: > 100 µM
T-47D breast
  TGI: > 100 µM
SK-MEL-2 melanoma
  TGI: 7.27 µM
UACC-62 melanoma
  TGI: > 100 µM
MCF7 breast
  TGI: > 100 µM
UO-31 renal
  TGI: 5.62 µM
OVCAR-4 ovarian
  TGI: > 100 µM
786-0 renal
  TGI: > 100 µM
SNB-75 CNS
  TGI: 48.5 µM
SK-MEL-28 melanoma
  TGI: > 100 µM
K-562 leukemia
  TGI: > 100 µM
PC-3 prostate
  TGI: > 100 µM
EKVX NSCLC
  TGI: > 100 µM
NCI-H23 lung
  TGI: > 100 µM
SR leukemia
  TGI: > 100 µM
ACHN renal
  TGI: > 100 µM
NCI-H226 lung
  TGI: > 100 µM
OVCAR-5 ovarian
  TGI: > 100 µM
KM12 colon
  TGI: > 100 µM
HOP-62 NSCLC
  TGI: > 100 µM
MDA-MB-435
  TGI: 9.38 µM
HT29 colon
  TGI: > 100 µM
OVCAR-3 ovarian
  TGI: > 100 µM
HOP-92 NSCLC
  TGI: > 100 µM
TK-10 renal
  TGI: > 100 µM
SK-OV-3 ovarian
  TGI: > 100 µM
HL-60(TB) leukemia
  TGI: 45.4 µM

## C=CCCCN1C(=O)C2C3c4ccccc4C(C=O)(c4ccccc43)C2C1=O (centres undefined)
MALME-3M melanoma
  TGI: 26.4 µM
UACC-257 melanoma
  TGI: 28.9 µM
CAKI-1 renal
  TGI: 50.9 µM
MOLT-4 leukemia
  TGI: 19.4 µM
U251 CNS
  TGI: 24.9 µM
CCRF-CEM leukemia
  TGI: 17.6 µM
SF-295 CNS
  TGI: 26.1 µM
SK-MEL-5 melanoma
  TGI: 23.5 µM
SN12C renal
  TGI: 22.2 µM
SW-620 colon
  TGI: 27.1 µM
MDA-MB-231 breast
  TGI: 23.5 µM
SF-268 CNS
  TGI: 59 µM
NCI-H460 lung
  TGI: 30.3 µM
DU-145 prostate
  TGI: 26.1 µM
RPMI-8226 leukemia
  TGI: 28.5 µM
SNB-19 CNS
  TGI: 32.1 µM
NCI/ADR-RES ovarian
  TGI: 58.2 µM
HCT-15 colon
  TGI: 21.5 µM
LOX IMVI melanoma
  TGI: 22.1 µM
OVCAR-8 ovarian
  TGI: 26.5 µM
A549 NSCLC
  TGI: 35.9 µM
HCT-116 colon
  TGI: 14.9 µM
HCC-2998 colon
  TGI: 28.5 µM
MDA-N
  TGI: 27.9 µM
COLO 205 colon
  TGI: 25.2 µM
T-47D breast
  TGI: > 100 µM
SK-MEL-2 melanoma
  TGI: 59.5 µM
UACC-62 melanoma
  TGI: 36.6 µM
MCF7 breast
  TGI: 28.5 µM
UO-31 renal
  TGI: 26 µM
OVCAR-4 ovarian
  TGI: 29.1 µM
786-0 renal
  TGI: 26.6 µM
IGROV1 ovarian
  TGI: 65.1 µM
SK-MEL-28 melanoma
  TGI: 31.9 µM
K-562 leukemia
  TGI: 17.8 µM
PC-3 prostate
  TGI: 26.3 µM
EKVX NSCLC
  TGI: 20.7 µM
NCI-H23 lung
  TGI: 33 µM
SR leukemia
  TGI: 18.1 µM
ACHN renal
  TGI: > 100 µM
OVCAR-5 ovarian
  TGI: 45.1 µM
KM12 colon
  TGI: 21.6 µM
NCI-H522 lung
  TGI: 25.7 µM
HOP-62 NSCLC
  TGI: 28.2 µM
HT29 colon
  TGI: 27.5 µM
OVCAR-3 ovarian
  TGI: 23.4 µM
HOP-92 NSCLC
  TGI: 28.2 µM
TK-10 renal
  TGI: 30.2 µM
SK-OV-3 ovarian
  TGI: 60.3 µM
HL-60(TB) leukemia
  TGI: 34.5 µM
